{
  "source": "patent US20250381133A1",
  "about": "“ARTICLE IN THE FORM OF EDIBLE SHEET” (TECOZYME INC, priority 2020, published 2025)",
  "system": "mouse tongue",
  "test": "In vivo biostability / mucoadhesiveness on mouse tongue",
  "set-up": "species or system ICR mice",
  "details": "after 60 minutes, high salivary flow; FIG. 19",
  "method": "Eight-week-old ICR mice were anesthetized with 100mg/kg of ketamine and 16.7 mg/kg of xylazine cocktail. 10 mg of the oral patch was applied to the tongue. 0.2 mg/kg of Pilocarpine was administered intraperitoneally to stimulate salivation. Tongue tissues were harvested at 30 and 60 minutes post-injection for SEM and fluorescence imaging.",
  "data": [
    {"substance": "unencapsulated FITC-BSA: FITC-labeled bovine serum albumin, not loaded in a patch", "values": [
      {"measurement": "retention of FITC-BSA on the tongue surface", "value": "completely washed away"}
    ]}
  ]
}
